# Test results: patent US20260199223A1, “USE OF AN AUREOBASIDIUM PULLULANS EXTRACT ALONE OR IN COMBINATION WITH A C-GLYCOSIDE AS A COSMETIC ACTIVE PRINCIPLE” (L'OREAL, priority 2022, published 2026)
# Assays:
# Type in all cases: cell-based, human
# occludin = assay: Expression of occludin in NHEK, in situ immunofluorescence; conditions: 144 hours
# Method: (§1) The effects of the Aureobasidium pullulans extract and C-β-D-xylopyranoside-2-hydroxypropane (C-Xyloside, Pro-Xylane™) and a combination thereof were evaluated on normal human epidermal keratinocytes (NHEK) by analysing the expression of markers by in situ immunofluorescence labelling and image analysis: • expression of the differentiation markers: Transglutaminase K (TGK), filaggrin and involucrin, • expression of the tight junction proteins: claudin-1, zonula occludens-1 (ZO-1) and occludin,
# (§2) The compounds were tested at a non-cytotoxic concentration. • Normal human keratinocytes: NHEK, Bioalternatives reference K341 used at third passage. • Culture conditions: 37° C., 5% CO2 • Culture medium: Keratinocyte SFM (serum free medium) supplemented with Epidermal Growth Factor Pituitary extract • Test medium: Keratinocyte SFM (serum free medium)
# The keratinocytes were seeded in 96-well plates and cultured in culture medium for 24 hours. […]
# (§3) The labelling was quantified by measuring the fluorescence intensity and normalizing the fluorescence intensity relative to the total number of cells (Digital data integration with Developer Toolbox 1.5 software, GE Healthcare).
# [1] = tested on: zonula occludens-1 (ZO-1); assay: Expression of ZO-1 in NHEK, in situ immunofluorescence; conditions: 72 hours
# Method: as §1, §2
# (§4) The keratinocytes were seeded in 96-well plates and cultured in culture medium for 24 hours. The medium was then replaced with a test medium containing or not containing (control) the test compounds, the combination or the reference compound and the cells were incubated for 72 hours.
# (§5) The cells were rinsed with PBS solution, fixed and permeabilized. The cells were then labelled using a specific primary antibody (Table 13).
# (§6) Image acquisition (five photos/well) was performed using an INCell Analyzer™ 2200 (GE Healthcare, x20 objective).
# as §3
# claudin-1 [2] = assay: Expression of claudin-1 in NHEK, in situ immunofluorescence; conditions: 72 hours
# Method: as §1, §2, §4, §5, §6, §3
# involucrin [3] = assay: Expression of involucrin in NHEK, in situ immunofluorescence; conditions: 144 hours
# Method: as §1, §2
# The keratinocytes were seeded in 96-well plates and cultured in culture medium for 24 hours. The medium was then replaced with a test medium containing or not containing (control) the test compounds, the combination or the reference compound and the cells were incubated for 144 hours with a repeat treatment after 72 hours.
# as §5, §6, §3
# filaggrin [4] = assay: Expression of filaggrin in NHEK, in situ immunofluorescence; conditions: 72 hours
# Method: as §1, §2
# The keratinocytes were seeded in a 96-well plate and grown in culture medium for 192 hours with renewal of the culture medium after 24 and 96 hours. The medium was then replaced with a test medium containing or not containing (control) the test compounds, the combination or the reference compound and the cells were incubated for 72 hours.
# as §5, §6, §3
# Transglutaminase K (TGK) = assay: Expression of TGK in NHEK, in situ immunofluorescence; conditions: 72 hours
# Method: as §1, §2, §4, §5, §6, §3
# Collagen IV = assay: Expression of collagen IV in NHEK, in situ immunofluorescence; conditions: 72 hours
# Method: as §1
# The compounds were tested at a non-cytotoxic concentration. • Normal human keratinocytes: NHEK, Bioalternatives reference K341 used at third passage. • Culture conditions: 37° C., 5% CO2 • Culture medium: Keratinocyte SFM (serum free medium) supplemented with Epidermal Growth Factor Pituitary extract • Test medium: Keratinocyte SFM (serum free medium) […]
# as §3
# filaggrin [5] = assay: Filaggrin synthesis by immunohistofluorescence in reconstructed epidermis
# Method: (§7) Human keratinocytes were seeded onto inserts and then incubated at 37° C. in an atmosphere containing 5% CO2. Between the second and ninth day of incubation, the culture medium was changed every two days. […] On day 17, the reconstructed skins were then recovered and processed in different ways depending on the analysis test performed, namely: • for immunohistofluorescence analysis, the reconstructed skins were recovered, fixed, dehydrated and embedded in paraffin. 4 μm sections were then produced using a microtome (Leica). • for a QPCR test, the reconstructed skins were recovered and the RNAs were extracted in their entirety. The following primary antibodies were used for this test: • Mouse anti-filaggrin monoclonal antibody • Rabbit anti-loricrin polyclonal antibody • Mouse anti-claudin-1 monoclonal antibody The secondary antibodies used were as follows: • Alexa Fluor® 488-coupled rabbit anti-IgG antibody • Alexa Fluor® 488-coupled mouse anti-IgG antibody Visualization was performed using an IX 70 microscope (Olympus) coupled to an image analysis system (NIS-Elements software, Nikon). The content of the various markers synthesized was proportional to the intensity of the green fluorescence present on the reconstructed epidermis samples. Quantification was performed by means of an image analysis script in Python language. The results are expressed in arbitrary units (AU).
# loricrin = assay: Loricrin synthesis by immunohistofluorescence in reconstructed epidermis; conditions: day 9 to day 17, 250 μm
# Method: as §7
# claudin-1 [6] = assay: Claudin-1 synthesis by immunohistofluorescence in reconstructed epidermis
# Method: as §7
# ZO-1 = assay: Quantitative PCR analysis of ZO-1 expression in reconstructed epidermis; conditions: QPCR, 250 μm, control = 100
# Method: (§8) Human keratinocytes were seeded onto inserts and then incubated at 37° C. in an atmosphere containing 5% CO2. Between the second and ninth day of incubation, the culture medium was changed every two days. […] On day 17, the reconstructed skins were then recovered and processed in different ways depending on the analysis test performed, namely: • for immunohistofluorescence analysis, the reconstructed skins were recovered, fixed, dehydrated and embedded in paraffin. 4 μm sections were then produced using a microtome (Leica). • for a QPCR test, the reconstructed skins were recovered and the RNAs were extracted in their entirety. For this analysis, the RNAs were reverse-transcribed and the complementary DNAs obtained were analysed via a quantitative PCR technique. The mRNAs of the RPS18, GAPDH and GUSB proteins, the reference internal controls, were analysed in parallel with the mRNAs of ZO-1, CK10, involucrin and TGM1. Quantification of fluorescence incorporation (SYBR Green) was measured continuously using a LightCycler LC480 thermal cycler (Roche) and Ct analysis (relative quantification) was performed using the LC480 software (Roche).
# CK10 = assay: Quantitative PCR analysis of CK10 expression in reconstructed epidermis; conditions: QPCR, 250 μm, control = 100
# Method: as §8
# TGM1 = assay: Quantitative PCR analysis of TGM1 expression in reconstructed epidermis; conditions: QPCR, 250 μm, control = 100
# Method: as §8
# involucrin [7] = assay: Quantitative PCR analysis of involucrin expression in reconstructed epidermis; conditions: QPCR, 250 μm, control = 100
# Method: as §8
molecule,measurement,setting,value
CC(O)C[C@@H]1OC[C@@H](O)[C@H](O)[C@H]1O (stereo partly drawn) [C-β-D-xylopyranoside-2-hydroxypropane],"Expression of occludin, Integration fluo",occludin; 0.3%,78 % of control
same,"Expression of ZO-1, Integration fluo",[1]; 0.03%,111 % of control
same,"Expression of ZO-1, Integration fluo",[1]; 0.1%,124 % of control
same,"Expression of ZO-1, Integration fluo",[1]; 0.3%,127 % of control
same,"Expression of Claudin-1, Integration fluo",claudin-1 [2]; 0.03%,184 % of control
same,"Expression of Claudin-1, Integration fluo",claudin-1 [2]; 0.1%,204 % of control
same,"Expression of Involucrin, Integration fluo",involucrin [3]; 0.1%,109 % of control
same,"Expression of Involucrin, Integration fluo",involucrin [3]; 0.3%,110 % of control
same,"Expression of Filaggrin, Integration fluo",filaggrin [4]; 0.1%,114 % of control
same,"Expression of Filaggrin, Integration fluo",filaggrin [4]; 0.3%,127 % of control
same,"Expression of TGK, Integration fluo",Transglutaminase K (TGK); 0.03%,124 % of control
same,"Expression of TGK, Integration fluo",Transglutaminase K (TGK); 0.1%,158 % of control
same,"Expression of TGK, Integration fluo",Transglutaminase K (TGK); 0.3%,235 % of control
same,"Expression of Collagen IV, Integration fluo",Collagen IV; 0.3%,120 % of control
NC(=O)c1cccnc1 [Niacinamide],"Efficacy/control (%), filaggrin",filaggrin [5]; 250 μm,+42%
same,Synthesis of filaggrin,"filaggrin [5]; day 9 to day 17, 250 μm",941 × 10^3 AU
same,Synthesis of loricin,loricrin,214 × 10^3 AU
same,"Efficacy/control (%), claudin-1",claudin-1 [6]; 250 μm,+10%
same,Synthesis of claudin-1,"claudin-1 [6]; day 9 to day 17, 250 μm",266 × 10^3 AU
same,Expression of ZO-1 (%),ZO-1,91%
same,Expression of CK10 (%),CK10,100%
same,Expression of TGMI (%),TGM1,86%
same,Expression of involucrin (%),involucrin [7],78%
"TGF-β: positive control for expression of the marker Collagen IV, R&D Systems ref. 240-B","Expression of Collagen IV, Integration fluo",Collagen IV; 10 ng/ml,176 % of control
[Ca+2].[Cl-].[Cl-] [CaCl2],"Expression of occludin, Integration fluo",occludin; 1.5 mM,296 % of control
same,"Expression of ZO-1, Integration fluo",[1]; 1.5 mM,119 % of control
same,"Expression of Claudin-1, Integration fluo",claudin-1 [2]; 1.5 mM,200 % of control
same,"Expression of Involucrin, Integration fluo",involucrin [3]; 1.5 mM,126 % of control
same,"Expression of Filaggrin, Integration fluo",filaggrin [4]; 1.5 mM,159 % of control
same,"Expression of TGK, Integration fluo",Transglutaminase K (TGK); 1.5 mM,903 % of control
